{"source": "paper PMC4076215", "about": "“Nickel(II) Complex of Polyhydroxybenzaldehyde N4-Thiosemicarbazone Exhibits Anti-Inflammatory Activity by Inhibiting NF-κB Transactivation” (PLoS ONE, 2014)", "key": {"[1]": {"tested_on": "NF-κB p65 nuclear translocation", "assay": "NF-κB p65 immunofluorescence staining, TNFα-stimulated HeLa S3", "format": "cell-based, human", "conditions": "HeLa S3, 6.25 µg/ml pretreatment 4 h", "experimental": "NF-κB Activation Kits (Thermo Scientific) were used as previously described. Cells were pretreated with compounds for 4 h before being stimulated with lipopolysaccharide (LPS) ortumour necrosis factor α (TNFα) for 1 h. Cells were then fixed and permeabilized before probing with NF-κB p65 antibody for 1 h. Staining solution (containing DyLight 488 Goat Anti-Rabbit and Hoechst dye) was then added and incubated for 1 h. The plate with stained cells was evaluated using a Cellomics ArrayScan HCS Reader (Cellomics, PA, USA). Data were captured, extracted and analyzed with ArrayScan II Data Acquisition and Data Viewer version 3.0 (Cellomics).\nTo examine whether complex 5 blocks the activation of NF-κB by another agonist, similar experiments were performed on HeLa S3 cells induced with TNFα. Similar to LPS-treated RAW264.7 cells, TNFα-induced translocation of NF-κB p65 in HeLa S3 cells (Figure 5A). […] TNF stimulation induced a rapid phosphorylation of IκBα in DMSO treated cells (within 5 minutes).\nFigure 5 Complex 5 blocks TNFα-induced NF-κB nuclear translocation. Complex 5 inhibits TNFα -induced NF-B nuclear translocation. (A) NF-κB activation assay on TNFα treated HeLa S3 cells. Staining of Hoechst (nucleus) and NF-κB in HeLa S3 cells. […] Western blot signal intensities were quantified using ImageJ software. […]"}, "[2]": {"tested_on": "NF-κB transactivation activity", "assay": "NF-κB luciferase reporter assay in 293T-luc cells", "format": "cell-based", "conditions": "293T-luc, 12.5, 25, 50 µg/ml 4 h, TNFα 12 h", "experimental": "293T cells were transduced with a lentivirus carrying luciferase reporter driven by NF-κB enhancer found in immunoglobulin kappa light chain gene to prepare 293T-luc cells. The 293T-luc cells were pretreated with or without of complex 5 (12.5 µg/ml, 25 µg/ml, 50 µg/ml) for 4 h. The cells were later stimulated with TNFα (10 ng/ml) for 12 h. Cells were scraped, collected into 1.5 ml tubes and centrifuged at 1.5 k rpm 4°C for 5 min before removing the culture medium. Cell pellets were resuspended in 50 µl luciferase lysis buffer (100 mM Sodium Phosphate buffer, pH7.8; 8 mM MgCl2; 1% Triton X-100; 15% glycerol; 1 mM DTT). A total volume of 50 µl of luciferase substrate (containing 1 mM ATP; 0.25 mM luciferin; 1% BSA) was added to each well on a white 96-well plate containing 20 µg lysate. Luciferase activity was measured in 96-well plate with a VarioskanFlash microplate reader (Thermo Scientific).\nFigure 6 Complex 5 inhibits NF-κB transactivation activity. (A) RAW264.7 cells pretreated with or without complex 5 for 4 h were treated with LPS for 4 h. The expression of TNFα, IFNβ, IL6 and IP10 were measured by QPCR. […] The expression of TNFα, IL8, CCL5, ICAM1, IL6 and A20 were measured by QPCR. […] The expression of IL8 and TNF were measured by QPCR. […] Cell lysates were prepared and the luciferase activities were measured. […]"}, "[3]": {"assay": "Liver functional test (serum) after oral dosing", "format": "in vivo, C57BL/6 mice", "conditions": "after two weeks", "experimental": "Liver functional test. C57BL/6 mice at age 8-12 weeks old were administrated orally with control PBS or with various concentrations (125 mg/kg, 250 mg/kg and 500 mg/kg) of complex 5. n= 6 (3 male and 3 female mice)/group. After two weeks, sera were collected from the mice for liver functional test.\nShown were mean ± SD. TBIL: Total Bilirubin, BC: Conjugated\nBilirubin, ALP: Alkaline Phophatase, ALT: Alanine Aminotransferase, AST: Aspartate Transaminase, GGT: G-Glutamyl Transferase."}}, "note": "“Also recorded” adds a separate entry of the source.", "data": [{"compound": "NC1=[S+][Ni-2]2([P+](c3ccccc3)(c3ccccc3)c3ccccc3)[O]c3c(O)cccc3C=[N+]2N1.[Cl-]", "note": "[complex 5, {2-[(2-Carbamothiolylhydrazin-1-ylidene-[kappa]2N1,S)methyl]-6-hydroxyphenolato-[kappa]O1}(triphenylphosphine-[kappa]P)nickel(II) chloride]", "values": [{"measurement": "Inhibition of TNFα-induced NF-κB nuclear translocation", "setting": "[1]", "result": "significantly blocked; also recorded: sufficient to prevent"}, {"measurement": "TNFα-induced NF-κB luciferase activity", "setting": "[2]", "result": "significantly reduced the luciferase activity in a dose-dependent manner"}, {"measurement": "ALP (Alkaline Phophatase)", "setting": "[3]; 125 mg/kg oral", "result": 192.00, "unit": "IU/L"}, {"measurement": "ALT (Alanine Aminotransferase)", "setting": "[3]; 125 mg/kg oral", "result": 69.00, "unit": "IU/L"}, {"measurement": "AST (Aspartate Transaminase)", "setting": "[3]; 125 mg/kg oral", "result": 421.00, "unit": "IU/L"}, {"measurement": "Albumin", "setting": "[3]; 125 mg/kg oral", "result": 18.00, "unit": "g/L"}, {"measurement": "BC (Conjugated Bilirubin)", "setting": "[3]; 125 mg/kg oral", "result": "< 1", "unit": "µmol/L"}, {"measurement": "GGT (G-Glutamyl Transferase)", "setting": "[3]; 125 mg/kg oral", "result": "< 3", "unit": "IU/L"}, {"measurement": "Globulin", "setting": "[3]; 125 mg/kg oral", "result": 42.00, "unit": "g/L"}, {"measurement": "TBIL (Total Bilirubin)", "setting": "[3]; 125 mg/kg oral", "result": 3.00, "unit": "µmol/L"}, {"measurement": "Total Protein", "setting": "[3]; 125 mg/kg oral", "result": 60.00, "unit": "g/L"}, {"measurement": "ALP (Alkaline Phophatase)", "setting": "[3]; 250 mg/kg oral", "result": 195.00, "unit": "IU/L"}, {"measurement": "ALT (Alanine Aminotransferase)", "setting": "[3]; 250 mg/kg oral", "result": 70.00, "unit": "IU/L"}, {"measurement": "AST (Aspartate Transaminase)", "setting": "[3]; 250 mg/kg oral", "result": 414.00, "unit": "IU/L"}, {"measurement": "Albumin", "setting": "[3]; 250 mg/kg oral", "result": 17.00, "unit": "g/L"}, {"measurement": "BC (Conjugated Bilirubin)", "setting": "[3]; 250 mg/kg oral", "result": "< 1", "unit": "µmol/L"}, {"measurement": "GGT (G-Glutamyl Transferase)", "setting": "[3]; 250 mg/kg oral", "result": "< 3", "unit": "IU/L"}, {"measurement": "Globulin", "setting": "[3]; 250 mg/kg oral", "result": 42.00, "unit": "g/L"}, {"measurement": "TBIL (Total Bilirubin)", "setting": "[3]; 250 mg/kg oral", "result": 2.50, "unit": "µmol/L"}, {"measurement": "Total Protein", "setting": "[3]; 250 mg/kg oral", "result": 59.00, "unit": "g/L"}, {"measurement": "ALP (Alkaline Phophatase)", "setting": "[3]; 500 mg/kg oral", "result": 219.50, "unit": "IU/L"}, {"measurement": "ALT (Alanine Aminotransferase)", "setting": "[3]; 500 mg/kg oral", "result": 70.00, "unit": "IU/L"}, {"measurement": "AST (Aspartate Transaminase)", "setting": "[3]; 500 mg/kg oral", "result": "316.50 ± 78.49", "unit": "IU/L"}, {"measurement": "Albumin", "setting": "[3]; 500 mg/kg oral", "result": 16.00, "unit": "g/L"}, {"measurement": "BC (Conjugated Bilirubin)", "setting": "[3]; 500 mg/kg oral", "result": "< 1", "unit": "µmol/L"}, {"measurement": "GGT (G-Glutamyl Transferase)", "setting": "[3]; 500 mg/kg oral", "result": "< 3", "unit": "IU/L"}, {"measurement": "Globulin", "setting": "[3]; 500 mg/kg oral", "result": 37.50, "unit": "g/L"}, {"measurement": "TBIL (Total Bilirubin)", "setting": "[3]; 500 mg/kg oral", "result": 3.00, "unit": "µmol/L"}, {"measurement": "Total Protein", "setting": "[3]; 500 mg/kg oral", "result": 53.50, "unit": "g/L"}]}]}
